From EPA's CvTdb concentration-time database

Tests used:
Rat [1] = assay: concentration in brain after dosing; details: 2 h; dosed: 2-Methyltetrahydrofuran; 40 mg/kg; iv; Male; Harlan Sprague Dawley
Rat [2] = assay: concentration in brain after dosing; details: 4 h; dosed: 2-Methyltetrahydrofuran; 40 mg/kg; iv; Male; Harlan Sprague Dawley
Rat [3] = assay: concentration in plasma after dosing; details: 6 h; dosed: 2-Methyltetrahydrofuran; 40 mg/kg; iv; Male; Harlan Sprague Dawley
Rat [4] = assay: concentration in plasma after dosing; details: 1.5 h; dosed: 2-Methyltetrahydrofuran; 40 mg/kg; iv; Male; Harlan Sprague Dawley
Rat [5] = assay: concentration in plasma after dosing; details: 2 min; dosed: 2-Methyltetrahydrofuran; 40 mg/kg; iv; Male; Harlan Sprague Dawley
Rat [6] = assay: concentration in plasma after dosing; details: 2 min; dosed: 2-Methyltetrahydrofuran; 40 mg/kg; iv; Female; Harlan Sprague Dawley
Rat [7] = assay: concentration in brain after dosing; details: 6 h; dosed: Perfluorohexanoic Acid; 80 mg/kg; oral; Male; Harlan Sprague Dawley
Rat [8] = assay: concentration in liver after dosing; details: 6 h; dosed: Perfluorohexanoic Acid; 80 mg/kg; oral; Female; Harlan Sprague Dawley
Rat [9] = assay: concentration in liver after dosing; details: 3 h; dosed: Perfluorohexanoic Acid; 80 mg/kg; oral; Male; Harlan Sprague Dawley
Rat [10] = assay: concentration in kidney after dosing; details: 0.5 h; dosed: Perfluorohexanoic Acid; 80 mg/kg; oral; Male; Harlan Sprague Dawley
Rat [11] = assay: concentration in plasma after dosing; details: 1.5 h; dosed: Perfluorohexanoic Acid; 40 mg/kg; iv; Male; F344
Rat [12] = assay: concentration in plasma after dosing; details: 2 h; dosed: Gemfibrozil; 4.29 mg/kg; oral; Male; Sprague-Dawley
Rat [13] = assay: concentration in plasma after dosing; details: 0.25 h; dosed: Gemfibrozil; 50 mg/kg; oral; Male; Sprague-Dawley
Rat [14] = assay: concentration in plasma after dosing; details: 4 h; dosed: Gemfibrozil; 50 mg/kg; oral; Male; Sprague-Dawley
Rat [15] = assay: concentration in plasma after dosing; details: 24 h; dosed: Gemfibrozil; 50 mg/kg; oral; Male; Sprague-Dawley
Rat [16] = assay: concentration in plasma after dosing; details: 1 h; dosed: Gemfibrozil; 50 mg/kg; oral; Male; Sprague-Dawley
Rat [17] = assay: concentration in plasma after dosing; details: 18 h; dosed: Gemfibrozil; 50 mg/kg; oral; Male; Sprague-Dawley
Rat [18] = assay: concentration in plasma after dosing; details: 18 h; dosed: Gemfibrozil; 4.29 mg/kg; oral; Male; Sprague-Dawley
Rat [19] = assay: concentration in plasma after dosing; details: 4 h; dosed: Gemfibrozil; 100 mg/kg; oral; Male; Sprague-Dawley
Rat [20] = assay: concentration in plasma after dosing; details: 5 min; dosed: Gemfibrozil; 4.29 mg/kg; oral; Male; Sprague-Dawley
Rat [21] = assay: concentration in liver after dosing; details: 3360 h; dosed: Perfluorooctane Sulfonate; 2 mg/kg; oral; Female; Harlan Sprague Dawley
Rat [22] = assay: concentration in liver after dosing; details: 3360 h; dosed: Perfluorooctane Sulfonate; 20 mg/kg; oral; Male; Harlan Sprague Dawley
Rat [23] = assay: concentration in liver after dosing; details: 1848 h; dosed: Perfluorooctane Sulfonate; 2 mg/kg; oral; Female; Harlan Sprague Dawley
Rat [24] = assay: concentration in liver after dosing; details: 3360 h; dosed: Perfluorooctane Sulfonate; 2 mg/kg; oral; Female; Harlan Sprague Dawley; remark: listed apart in the source
Rat [25] = assay: concentration in plasma after dosing; details: dosed: Perfluorooctane Sulfonate, 2 mg/kg, iv, Female, Harlan Sprague-Dawley
Rat [26] = assay: concentration in kidney after dosing; details: 864 h; dosed: Perfluorooctane Sulfonate; 20 mg/kg; oral; Female; F344
Rat [27] = assay: concentration in liver after dosing; details: 6 h; dosed: Fluorotelomer alcohol 8+2; 80 mg/kg; oral; Female; Harlan Sprague Dawley
Rat [28] = assay: concentration in liver after dosing; details: 3 h; dosed: Fluorotelomer alcohol 8+2; 24 mg/kg; oral; Male; Harlan Sprague Dawley
Rat [29] = assay: concentration in liver after dosing; details: 1 h; dosed: Fluorotelomer alcohol 8+2; 24 mg/kg; oral; Male; Harlan Sprague Dawley
Rat [30] = assay: concentration in liver after dosing; details: 6 h; dosed: Fluorotelomer alcohol 8+2; 24 mg/kg; oral; Male; Harlan Sprague Dawley
Rat [31] = assay: concentration in kidney after dosing; details: 6 h; dosed: Fluorotelomer alcohol 8+2; 80 mg/kg; oral; Female; Harlan Sprague Dawley
Rat [32] = assay: concentration in plasma after dosing; details: dosed: 678-39-7, 40 mg/kg, iv, Male, F344
Rat [33] = assay: concentration in kidney after dosing; details: 3 h; dosed: Fluorotelomer alcohol 8+2; 80 mg/kg; oral; Female; Harlan Sprague Dawley

CC1CCCO1 (stereo not given) [2-Methyltetrahydrofuran]
Details	concentration in brain [ng/mL]	concentration in plasma [ng/mL]
Rat [1]	8260	–
Rat [2]	184	–
Rat [3]	–	16.9
Rat [4]	–	12000
Rat [5]	–	59400
Rat [6]	–	52500

O=C(O)C(F)(F)C(F)(F)C(F)(F)C(F)(F)C(F)(F)F [Perfluorohexanoic Acid]
Details	concentration in brain [ng/g]	concentration in kidney [ng/g]	concentration in liver [ng/g]	concentration in plasma [ng/mL]
Rat [7]	694	–	–	–
Rat [8]	–	–	6260	–
Rat [9]	–	–	37400	–
Rat [10]	–	99400	–	–
Rat [11]	–	–	–	336

Cc1ccc(C)c(OCCCC(C)(C)C(=O)O)c1 [Gemfibrozil]
Details	concentration in plasma [ng/mL]
Rat [12]	234
Rat [13]	79300
Rat [14]	5620
Rat [15]	846
Rat [16]	3370
Rat [17]	1510
Rat [18]	287
Rat [19]	6150
Rat [20]	485

O=S(=O)([O-])C(F)(F)C(F)(F)C(F)(F)C(F)(F)C(F)(F)C(F)(F)C(F)(F)C(F)(F)F [Perfluorooctane Sulfonate]
Details	concentration in kidney [ng/g]	concentration in liver [ng/g]
Rat [21]	–	9920
Rat [22]	–	23900
Rat [23]	–	12000
Rat [24]	–	4340
Rat [26]	35600	–

Rat [25]
Details	concentration in plasma [ng/mL]
5 min	5920
24 h	5370

O=C(O)CCC(F)(F)C(F)(F)C(F)(F)C(F)(F)C(F)(F)C(F)(F)C(F)(F)F [Fluorotelomer acid 7+3]
Details	concentration in kidney [ng/g]	concentration in liver [ng/g]
Rat [27]	–	7770
Rat [28]	–	2780
Rat [29]	–	588
Rat [30]	–	1500
Rat [31]	3640	–
Rat [33]	5820	–

Rat [32]
Details	concentration in plasma [ng/mL]
3 h	3090
5 min	25.4
